Like-named read-outs stand apart in the source and are kept apart here.
Assay: Tissue distribution in rats after oral administration
Assay type: in vivo, male Sprague-Dawley rats
Details: PO 25 mg/kg; for concentration at 0.5 h / concentration at 1 h / concentration at 2 h / concentration at 3 h / concentration at 5 h / concentration at 7 h / concentration at 24 h: male, Sprague-Dawley, rat
Procedure: Preliminary tissue distribution studies were conducted in male Sprague-Dawley rats (N=3/time point) at 0.5, 1, 2, 3, 5, 7, and 24 hours following oral administration of compound of Formula I at a dose of 25 mg/kg. The following tissues were harvested for compound concentration analysis: liver, kidney, brain, muscle, epididymis fat, duodenum, jejunum, ileum, colon (both lumen content and tissue), and plasma. The results of this study indicated low systemic exposure and high local concentrations (intestinal tract).

[1] = 1 h, BLOQ 0.5 ng/mL of tissue homogenate
[2] = 2 h, BLOQ 0.5 ng/mL of tissue homogenate
[3] = 3 h, BLOQ 0.5 ng/mL of tissue homogenate
[4] = 5 h, BLOQ 0.5 ng/mL of tissue homogenate
[5] = 24 h, BLOQ 0.5 ng/mL of tissue homogenate

CC(C)(O)CNC(=O)Cc1nc2cnc3[nH]ccc3c2n1[C@H]1CC[C@H](CC#N)CC1 [Compound of Formula I, 2-(1-((1r,4r)-4-(Cyanomethyl)cyclohexyl)-1,6-dihydroimidazo[4,5-d]pyrrolo[2,3-b]pyridin-2-yl)-N-(2-hydroxy-2-methylpropyl)acetamide]
Brain concentration [1]: BLOQ^(a)
Fat concentration [1]: BLOQ^(a)
Kidney concentration (1 h, SD NA): 42.2 ng/g
Plasma concentration (1 h, SD NA): 5.8 ng/mL
Brain concentration [2]: BLOQ^(a)
Fat concentration [2]: BLOQ^(a)
Muscle concentration [2]: BLOQ^(a)
Brain concentration [3]: BLOQ^(a)
Muscle concentration [3]: BLOQ^(a)
Ileum Content concentration (3 h, average, N = 3): 1,402,241 ng/mL
Brain concentration [4]: BLOQ^(a)
Fat concentration [4]: BLOQ^(a)
Muscle concentration [4]: BLOQ^(a)
Brain concentration (7 h, BLOQ 0.5 ng/mL of tissue homogenate): BLOQ^(a)
Plasma concentration (24 h, BLOQ 0.5 ng/mL): BLOQ^(a)
Brain concentration [5]: BLOQ^(a)
Fat concentration [5]: BLOQ^(a)
Kidney concentration [5]: BLOQ^(a)
Muscle concentration [5]: BLOQ^(a)
concentration at 0.5 h (brain, average ±SD, read-out: Brain concentration): 3.5 ± 3.1 ng/g
concentration at 0.5 h (colon lumen content, average, N = 3, read-out: Colon Content concentration): 167 ng/mL
concentration at 1 h (colon lumen content, 1 h, average, N = 3, read-out: Colon Content concentration): 135 ng/mL
concentration at 2 h (colon lumen content, 2 h, average, N = 3, read-out: Colon Content concentration): 19100 ng/mL
concentration at 3 h (colon lumen content, 3 h, average, N = 3, read-out: Colon Content concentration): 304000 ng/mL
concentration at 5 h (colon lumen content, 5 h, average, N = 3, read-out: Colon Content concentration): 830000 ng/mL
concentration at 7 h (colon lumen content, 7 h, average, N = 3, read-out: Colon Content concentration): 834000 ng/mL
concentration at 24 h (colon lumen content, 24 h, average, N = 3, read-out: Colon Content concentration): 7590 ng/mL
concentration at 0.5 h (colon tissue, average, N = 3, read-out: Colon Tissue concentration): 946 ng/g
concentration at 1 h (colon tissue, 1 h, average, N = 3, read-out: Colon Tissue concentration): 383 ng/g
concentration at 2 h (colon tissue, 2 h, average, N = 3, read-out: Colon Tissue concentration): 2190 ng/g
concentration at 3 h (colon tissue, 3 h, average, N = 3, read-out: Colon Tissue concentration): 12400 ng/g
concentration at 5 h (colon tissue, 5 h, average, N = 3, read-out: Colon Tissue concentration): 33500 ng/g
concentration at 7 h (colon tissue, 7 h, average, N = 3, read-out: Colon Tissue concentration): 36700 ng/g
concentration at 24 h (colon tissue, 24 h, average, N = 3, read-out: Colon Tissue concentration): 353 ng/g
concentration at 0.5 h (duodenum lumen content, average, N = 3, read-out: Duod. Content concentration): 329000 ng/mL
concentration at 1 h (duodenum lumen content, 1 h, average, N = 3, read-out: Duod. Content concentration): 45500 ng/mL
concentration at 2 h (duodenum lumen content, 2 h, average, N = 3, read-out: Duod. Content concentration): 20200 ng/mL
concentration at 3 h (duodenum lumen content, 3 h, average, N = 3, read-out: Duod. Content concentration): 15800 ng/mL
concentration at 5 h (duodenum lumen content, 5 h, average, N = 3, read-out: Duod. Content concentration): 4470 ng/mL
concentration at 7 h (duodenum lumen content, 7 h, average, N = 3, read-out: Duod. Content concentration): 2630 ng/mL
concentration at 24 h (duodenum lumen content, 24 h, average, N = 3, read-out: Duod. Content concentration): 60 ng/mL
concentration at 0.5 h (duodenum tissue, average, N = 3, read-out: Duod. Tissue concentration): 35200 ng/g
concentration at 1 h (duodenum tissue, 1 h, average, N = 3, read-out: Duod. Tissue concentration): 16700 ng/g
concentration at 2 h (duodenum tissue, 2 h, average, N = 3, read-out: Duod. Tissue concentration): 3170 ng/g
concentration at 3 h (duodenum tissue, 3 h, average, N = 3, read-out: Duod. Tissue concentration): 3840 ng/g
concentration at 5 h (duodenum tissue, 5 h, average, N = 3, read-out: Duod. Tissue concentration): 1100 ng/g
concentration at 7 h (duodenum tissue, 7 h, average, N = 3, read-out: Duod. Tissue concentration): 366 ng/g
concentration at 24 h (duodenum tissue, 24 h, average, N = 3, read-out: Duod. Tissue concentration): 17 ng/g
concentration at 0.5 h (ileum lumen content, average, N = 3, read-out: Ileum Content concentration): 644 ng/mL
concentration at 1 h (ileum lumen content, 1 h, average, N = 3, read-out: Ileum Content concentration): 496 ng/mL
concentration at 2 h (ileum lumen content, 2 h, average, N = 3, read-out: Ileum Content concentration): 725000 ng/mL
concentration at 5 h (ileum lumen content, 5 h, average, N = 3, read-out: Ileum Content concentration): 597000 ng/mL
concentration at 7 h (ileum lumen content, 7 h, average, N = 3, read-out: Ileum Content concentration): 133000 ng/mL
concentration at 24 h (ileum lumen content, 24 h, average, N = 3, read-out: Ileum Content concentration): 893 ng/mL
concentration at 0.5 h (ileum tissue, average, N = 3, read-out: Ileum Tissue concentration): 1340 ng/g
concentration at 1 h (ileum tissue, 1 h, average, N = 3, read-out: Ileum Tissue concentration): 252 ng/g
concentration at 2 h (ileum tissue, 2 h, average, N = 3, read-out: Ileum Tissue concentration): 8950 ng/g
concentration at 3 h (ileum tissue, 3 h, average, N = 3, read-out: Ileum Tissue concentration): 50800 ng/g
concentration at 5 h (ileum tissue, 5 h, average, N = 3, read-out: Ileum Tissue concentration): 18000 ng/g
concentration at 7 h (ileum tissue, 7 h, average, N = 3, read-out: Ileum Tissue concentration): 6490 ng/g
concentration at 0.5 h (jejunum lumen content, average, N = 3, read-out: Jejunum Content concentration): 533000 ng/mL

Reference: patent publication US12390451B2, “Small molecule inhibitor of the JAK family of kinases” (Janssen Pharmaceutica NV, priority 2021, dated 2025)
